From patent US4788209A, “Antifungal 2-anilinothiazolines” (Merrell Dow Pharmaceuticals Inc., priority 1987, dated 1988)
Values after ≈ are worked out from the molar mass of the structure shown. Read-outs that look alike come from different tables or passages of the source.

Tests used:
Candida albicans [1] = assay: Single dose therapy of rat vaginitis (vaginal candidiasis) induced by two challenge levels; format: in vivo; details: 0.2 ml of 10% solution intravaginally, 24 hours after treatment
Protocol: To compare the activity of N-(4-hexylphenyl)-4,5-dihydro-2-thiazolamine with that of the well established antifungal agents miconazole and Clotrimazole, vaginal candidiasis was induced in rats.
Groups of 6 female, ovariectomized rats, 180-200 gram weight, were pretreated for 2 successive days with 0.5 mg of progesterone and 0.5 mg of estradiol administered subcutaneously to induce oestrus. Forty-eight hours later rats were infected intravaginally on 2 successive days with Candida albicans cells. Challenge levels of 1×10^7 and 1×10^6 cells were employed. Seventy-two hours after infection, the rats were treated topically (intravaginally) with 0.2 ml of a 10% solution of test compound in a vehicle consisting of the following: cetyl alcohol, 3.5 gm; glycerol monostearate polyethyleneglycol 100, 4.0 gm; diglycol stearate, 3.0 gm; polyethyleneglycol 400, 18.75 gm; and purified water, 18.75 gm.
Twenty-four hours after treatment, vaginal washings were collected, diluted and mixed with Mycosel agar in petri dishes. The dishes were incubated for 48 hours and colonies were counted to determine the surviving number of yeast cells per vaginal washing.

Candida tropicalis = assay: Minimal inhibitory concentration against yeasts (Mycophil agar, Steers-Foltz apparatus); format: cell-based; details: 24 hours at 37° C.
Protocol: (§1) The compounds of the present invention show activity against pathogenic fungi in vitro and in vivo. The activity of N-(4-hexylphenyl)-4,5-dihydro-2-thiazolamine against various yeast fungi commonly responsible for diseases of humans and animals is illustrated in Table I.
(§2) The compound was prepared in 20 ml aliquots of Mycophil agar at concentrations of 1.5 μM to 250 μM. The agar surfaces were innoculated with approximately 1×10^5 yeast cells/ml using a Steers-Foltz apparatus. The plates were incubated for 24 hours at 37° C. and examined for yeast growth. The minimal inhibitory concentration (MIC) is reported as the lowest concentration of compound that inhibited growth.

Candida albicans [2] = assay: as above; format: cell-based; details: 24 hours at 37° C.
Protocol: as §1, §2

Candida pseudotropicalis = assay: as above; format: cell-based; details: Kluyveromyces marxianus; 24 hours at 37° C.
Protocol: as §1, §2

Candida parapsilosis = assay: as above; format: cell-based; details: Lodderomyces parapsilosis; 24 hours at 37° C.
Protocol: as §1, §2

Torulopsis glabrata = assay: as above; format: cell-based; details: Nakaseomyces glabratus; 24 hours at 37° C.
Protocol: as §1, §2

SMILES | % Killed (Candida albicans [1]; challenge 1 × 10^6 cells) [%] | Cells/ml Lavage (Candida albicans [1]; challenge 1 × 10^6 cells) | % Killed (Candida albicans [1]; challenge 1 × 10^7 cells) [%] | Cells/ml Lavage (Candida albicans [1]; challenge 1 × 10^7 cells) | MIC (Candida tropicalis; Candida tropicalis, strain 4, read-out: MIC) [µg/mL] | MIC (Candida tropicalis; strain 20) [µg/mL] | MIC (Candida albicans [2]; Candida albicans, strain 1, read-out: MIC) [µg/mL] | MIC (Candida albicans [2]; strain 8) [µg/mL] | MIC (Candida albicans [2]; strain 10) [µg/mL] | MIC (Candida albicans [2]; strain 14) [µg/mL] | MIC (Candida albicans [2]; strain 16) [µg/mL] | MIC (Candida pseudotropicalis) [µg/mL] | MIC (Candida parapsilosis) [µg/mL] | MIC (Torulopsis glabrata) [µg/mL]
Clc1ccccc1C(c1ccccc1)(c1ccccc1)n1ccnc1 [Clotrimazole] | 83 | 1 × 10^4 Cells/ml | 75 | 5 × 10^4 Cells/ml | – | – | – | – | – | – | – | – | – | –
Clc1ccc(COC(Cn2ccnc2)c2ccc(Cl)cc2Cl)c(Cl)c1 (stereo not shown) [Miconazole, miconazole] | 88 | 7 × 10^3 Cells/ml | 90 | 2 × 10^4 Cells/ml | – | – | – | – | – | – | – | – | – | –
CCCCCCc1ccc(NC2=NCCS2)cc1 [N-(4-Hexylphenyl)-4,5-dihydro-2-thiazolamine] | 97 | 2 × 10^3 Cells/ml | 98 | 5 × 10^3 Cells/ml | 8 (≈ 30.5 µM) | 8 (≈ 30.5 µM) | 8 (≈ 30.5 µM) | 8 (≈ 30.5 µM) | 8 (≈ 30.5 µM) | 8 (≈ 30.5 µM) | 8 (≈ 30.5 µM) | 2 (≈ 7.62 µM) | 4 (≈ 15.2 µM) | 8 (≈ 30.5 µM)
